Measured values as given in patent publication US20060070135A1, “Compositions and methods for inhibiting the enzymatic activity of PTP-1B” (priority 1998, published 2006).

Key:
[1] = system: phosphorylation level of the insulin receptor in CHO-IR cells (endogenous PTP-1B); test: Intact cell assay: insulin receptor phosphorylation level in CHO-IR cells treated with PTP-1B inhibitors and stimulated with insulin; format: cell-based, Chinese hamster; settings: 5 nM insulin; for Intact cell assay: fold-increase over control / fold induction at 50 µM: at 50 μM
Protocol: The phosphorylation level of the insulin receptor (IR) was determined in CHO-IR cells (Chinese hamster ovarian cells expressing endogenous PTP-1B and overexpressing human insulin receptor; ATCC, Manassas, Va.) treated with PTP-1B inhibitors and stimulated with 5 nM insulin. CHO-IR cells were grown in F12 media, 10% fetal bovine serum (FBS), and 1% penstrep. All experiments were conducted within the first 12 passages after thawing cells.
On the first day of the experiment, CHO-IR cells were placed in 6-well plates (1/10 of 100 mm confluent plate). Once cells were confluent (˜24 hours later), the cells were starved overnight in 0% fetal bovine serum F12 medium. After the overnight incubation, the medium was changed to fresh 0% F12 30 minutes prior to the addition of inhibitor. A 1 mL aliquote of media containing inhibitor (10, 25 or 50 μM), with a final concentration of 0.1% DMSO, was added to each well. The inhibitors were added directly to the serum-free media, shortly before using them (i.e., the inhibitor was added to cells within 10 minutes of dilution). Cells were incubated with inhibitors for 2-4 hours. A 250 μL aliquote of insulin (human insulin, HUMULIN™ was subsequently added to each well at a final concentration of 5 nM. The cells were incubated for an additional 10 minutes and washed 2× with cold phosphate-buffered saline (PBS). Proteins were isolated with modified RIPA buffer (200 μL/well) containing protease inhibitor (COMPLETE™), NaF, and Na3VO4.
Protein quantification was conducted using Bradford reagent (BIO-RAD, Hercules, Calif.). Proteins were separated in an 8% SDS-PAGE gel with 25-40 μg protein per well. The proteins were subsequently transferred to PDVF membrane for western blot analysis. Membranes were blocked for 1 hour in either 1% bovine serum albumin for the 4G10 antibody or 5% milk for other antibodies. Membranes were incubated overnight at 4° C. with 4G10 or phospho-antibody, washed 4×5 minutes to remove the primary antibody, incubated 1 hour with secondary antibody, washed an additional 4×5 minutes, and visualized using an ECL detection kit.
Membranes were subsequently stripped, blocked for 1 hour and probed with anti-P-IR, anti-IR, anti-p-AKT, and anti-AKT primary antibodies. Primary antibodies were anti-IR pY1162pY1163 (human) polyclonal antibody and anti-1-IR polyclonal antibody. The blots were washed 4×5 minutes to remove primary antibody, incubated 1 hour in anti-rabbit HRP secondary antibody, washed an additional 4×5 minutes and visualized using ECL.
Bands visualized on the blots were quantified using NIH Image 1.62. Quantification was conducted for at least three experiments.

[2] = biological target: Insulin receptor (mouse, endogenous; β-subunit immunoprecipitated from tissue membrane fractions) (mouse) (UniProt P15208); test: cell-based or functional assay
[3] = Cricetulus griseus, read-out: Intact cell assay: fold-increase over control

UniProt P15208, sequence (P15208 753-1372 limits assumed): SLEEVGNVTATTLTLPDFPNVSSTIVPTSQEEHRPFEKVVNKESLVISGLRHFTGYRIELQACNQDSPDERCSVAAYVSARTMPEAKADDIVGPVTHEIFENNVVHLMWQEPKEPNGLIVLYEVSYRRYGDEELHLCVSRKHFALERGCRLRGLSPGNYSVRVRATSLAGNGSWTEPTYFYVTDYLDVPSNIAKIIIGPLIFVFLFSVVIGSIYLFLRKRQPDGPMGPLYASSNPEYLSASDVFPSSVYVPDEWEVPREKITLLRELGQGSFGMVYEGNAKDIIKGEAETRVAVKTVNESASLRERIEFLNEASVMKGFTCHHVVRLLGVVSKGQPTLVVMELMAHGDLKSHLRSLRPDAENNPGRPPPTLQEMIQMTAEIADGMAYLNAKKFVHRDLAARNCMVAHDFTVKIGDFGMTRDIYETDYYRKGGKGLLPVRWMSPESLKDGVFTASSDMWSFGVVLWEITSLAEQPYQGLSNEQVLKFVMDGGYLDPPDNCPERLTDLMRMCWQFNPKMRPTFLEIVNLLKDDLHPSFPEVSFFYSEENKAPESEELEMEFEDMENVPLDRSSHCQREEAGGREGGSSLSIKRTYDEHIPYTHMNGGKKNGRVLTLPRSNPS

Row | Compound | Intact cell assay: fold-increase over control [1] | also measured
1 | Nc1c(S(=O)(=O)O)cc(S(=O)(=O)O)c2cccc(O)c12 [compound 11, 4-amino-5-hydroxynaphthalene-1,3-disulfonic acid] | Inactive at 50 μM | –
2 | CCc1nnc(NS(=O)(=O)c2ccc(NC(=S)NC(=O)/C=C/c3ccc(C(C)C)cc3)cc2)s1 [compound 14, N-(5-ethyl-[1,3,4]thiadiazol-2-yl)-4-{3-[3-(4-isopropylphenyl)-acryloyl]-thioureido}-benzenesulfonamide] | Inactive at 50 μM | –
3 | O=C(O)c1ccc(N2C(=O)/C(=C/c3ccc(-c4ccc([N+](=O)[O-])cc4)o3)C=C2c2ccccc2)cc1 [compound 17, 4-{3-[5-(4-nitrophenyl)-furan-2-ylmethylene]-2-oxo-5-phenyl-2,3-dihydropyrrol-1-yl}-benzoic acid] | Inactive at 50 μM | –
4 | O=C(/C=C/c1ccco1)Nc1ccc(C(=O)O)cc1NC(=O)/C=C/c1ccco1 [compound 16, 3,4-bis-(3-furan-2-ylacryloylamino)-benzoic acid] | Inactive at 50 μM | –
5 | N#CC(C#N)=C1CSc2sc(=S)sc2SC1 [compound 13, 2-(2-thioxo-[1,3]dithiolo[4,5-b][1,4]dithiepin-6-ylidene)malononitrile] | Inactive at 50 μM | –
6 | COc1ccc(-c2csc(N3N=C(c4ccc([N+](=O)[O-])cc4)C(=NNc4ccc(S(N)(=O)=O)cc4)C3=O)n2)cc1 [compound 15, 4-{N′-[1-[4-(4-methoxyphenyl)-thiazol-2-yl]-3-(4-nitrophenyl)-5-oxo-1,5-dihydropyrazol-4-ylidene]-hydrazino}-benzenesulfonamide] | Inactive at 50 μM | –
7 | Protein tyrosine phosphatase-1B (mouse, endogenous) (from UniProt P35821 1-432) (enzyme) | – | insulin receptor phosphorylation level in muscle after insulin challenge, PTP-1B (+/-) against wild-type mice on high fat, high carbohydrate diet [2]: 2 fold; insulin receptor phosphorylation level in muscle after insulin challenge, PTP-1B (-/-) against wild-type mice on high fat, high carbohydrate diet [2]: 4 fold; phosphotyrosine level of the insulin receptor in muscle of insulin treated PTP-1B null mice compared to wild-type (immunoprecipitation, anti-phosphotyrosine immunoblot, densitometry) [2]: 40%
8 | O=[N+]([O-])c1ccc(O)c(/C=N/N=c2/[nH]c3nonc3nc2Nc2ccc(I)cc2)c1 [compound 20, 2-{[6-(4-iodophenylamino)-4H-[1,2,5]oxadiazolo[3,4-b]pyrazin-5-ylidene]-hydrazonomethyl}-4-nitrophenol] | Inactive at 50 μM | –
9 | O=C1C=CC(=O)c2c(O)cccc21 [compound 21, 5-hydroxy-[1,4]-naphthoquinone] | – | fold induction at 50 µM [1, 3]: 0.87
10 | COc1cc(/C=C2/SC(=S)N(c3cccc(Cl)c3)C2=O)cc([N+](=O)[O-])c1O [compound 22, 3-(3-chlorophenyl)-5-(4-hydroxy-3-methoxy-5-nitrobenzylidene)-2-thioxothiazolidin-4-one] | – | fold induction at 25 µM ([1]; Cricetulus griseus, at 25 μM, read-out: Intact cell assay: fold-increase over control): 2.7; fold induction at 50 µM [1, 3]: 4.1
11 | Nc1nnnn1/N=C/c1cc(I)cc(I)c1O [compound 19, 2-[(5-aminotetrazol-1-ylimino)-methyl]-4,6-diiodophenol] | Inactive at 50 μM | –
12 | Protein tyrosine phosphatase-1B (mouse, endogenous) (from UniProt P35821 1-432) | – | insulin receptor tyrosine phosphorylation in liver of wild-type mice, 5 minutes against 1 minute after insulin injection [2]: 50%
